# Results reported in ChEMBL document CHEMBL1201862, “PubChem BioAssay data set” (2004).
# “And” between values parts separate entries of the source, which are not always exact repeats. Equal values may be shown once.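 Following 48 hours of exposure in 96-well plates, responses at five concentrations were used to interpolate endpoints linearly. The concentration for 50% growth inhibition is given as GI50.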 The source made the active and inactive calls. Cut-off read from the data, not from the text of the source: active = GI50 up to about 1.1 µM and inactive = higher.
# Tests used:
# Experiment in all cases: growth of human tumour cells (NCI), 48 h
# [1] = tested on: BT-549
# [2] = tested on: CCRF-CEM
# [3] = tested on: COLO 205
# [4] = tested on: EKVX
# [5] = tested on: HCT-116
# [6] = tested on: HCT-15
# [7] = tested on: HL-60
# [8] = tested on: HOP-92
# [9] = tested on: HT-29
# [10] = tested on: IGROV-1
# [11] = tested on: K562
# [12] = tested on: M14
# [13] = tested on: MCF7
# [14] = tested on: MDA-MB-231
# [15] = tested on: MOLT-4
# [16] = tested on: NCI-H226
# [17] = tested on: NCI-H23
# [18] = tested on: NCI-H460
# [19] = tested on: NCI-H522
# [20] = tested on: NCI/ADR-RES
# [21] = tested on: OVCAR-5
# [22] = tested on: PC-3
# [23] = tested on: RPMI-8226
# [24] = tested on: RXF 393
# [25] = tested on: SF-295
# [26] = tested on: SF-539
# [27] = tested on: SK-MEL-2
# [28] = tested on: SK-OV-3
# [29] = tested on: SN12C
# [30] = tested on: SNB-75
# [31] = tested on: SR
# [32] = tested on: SW-620
# [33] = tested on: T47D
# [34] = tested on: TK-10
# [35] = tested on: UACC-257
# [36] = tested on: UACC-62
# [37] = tested on: 786-0
# [38] = tested on: A498
# [39] = tested on: A549
# [40] = tested on: ACHN
# [41] = tested on: CAKI-1
# [42] = tested on: DU-145
# [43] = tested on: HCC 2998
# [44] = tested on: HOP-62
# [45] = tested on: KM12
# [46] = tested on: LOX IMVI
# [47] = tested on: MDA-MB-435
# [48] = tested on: MDA-N
# [49] = tested on: OVCAR-3
# [50] = tested on: OVCAR-4
# [51] = tested on: OVCAR-8
# [52] = tested on: SK-MEL-28
# [53] = tested on: SK-MEL-5
# [54] = tested on: SNB-19
# [55] = tested on: U-251
# [56] = tested on: UO-31
# [57] = tested on: Hs-578T
# [58] = tested on: SF-268
compound,measurement,setting,value
CC1CCC2(NC1)OC1CC3C4CC=C5CC(O)CCC5(C)C4CCC3(C)C1C2C (stereo unspecified),GI50,[1],32.8 µM (inactive) and 48.5 µM (inactive)
same,GI50,[2],12.4 µM (inactive) and 15.2 µM (inactive)
same,GI50,[3],58.5 µM (inactive) and 40.6 µM (inactive)
same,GI50,[4],22.5 µM (inactive) and 37.4 µM (inactive)
same,GI50,[5],18.8 µM (inactive) and 9.86 µM (inactive)
same,GI50,[6],32.5 µM and 38.8 µM
same,GI50,[7],15.1 µM (inactive) and 11.6 µM (inactive)
same,GI50,[8],19.5 µM (inactive) and 17.5 µM (inactive)
same,GI50,[9],24.1 µM (inactive) and 12.5 µM (inactive)
same,GI50,[10],32.5 µM (inactive) and 35 µM (inactive)
same,GI50,[11],14.9 µM (inactive)
same,GI50,[12],76.6 µM (inactive) and 42.1 µM (inactive)
same,GI50,[13],23.2 µM (inactive) and 42.9 µM (inactive)
same,GI50,[14],12.8 µM (inactive) and 24.9 µM (inactive)
same,GI50,[15],18.3 µM (inactive) and 18.6 µM (inactive)
same,GI50,[16],54 µM (inactive) and 27.8 µM (inactive)
same,GI50,[17],39.4 µM (inactive) and 37.1 µM (inactive)
same,GI50,[18],25.9 µM (inactive) and 14.1 µM (inactive)
same,GI50,[19],31.1 µM (inactive) and 22.4 µM (inactive)
same,GI50,[20],13.2 µM (inactive) and 14.4 µM (inactive)
same,GI50,[21],39.1 µM (inactive) and 40.3 µM (inactive)
same,GI50,[22],22.7 µM (inactive) and 34.9 µM (inactive)
same,GI50,[23],20.6 µM (inactive) and 10.9 µM (inactive)
same,GI50,[24],25.2 µM (inactive) and 16.8 µM (inactive)
same,GI50,[25],24.9 µM (inactive) and 18.7 µM (inactive)
same,GI50,[26],17.3 µM (inactive) and 10.9 µM (inactive)
same,GI50,[27],29.9 µM (inactive) and 19.5 µM (inactive)
same,GI50,[28],24.8 µM (inactive) and 15.7 µM (inactive)
same,GI50,[29],15 µM (inactive) and 22.8 µM (inactive)
same,GI50,[30],4.72 µM (inactive)
same,GI50,[31],4 µM (inactive) and 2.87 µM (inactive)
same,GI50,[32],18.5 µM (inactive) and 27.8 µM (inactive)
same,GI50,[33],23.4 µM (inactive) and 17.5 µM (inactive)
same,GI50,[34],12.4 µM (inactive) and 20.4 µM (inactive)
same,GI50,[35],55.8 µM (inactive) and 49.1 µM (inactive)
same,GI50,[36],27.2 µM (inactive) and 18.1 µM (inactive)
CCOC(=O)CCSS(=O)(=O)C(F)(F)F,GI50,[37],> 100 µM (inactive)
same,GI50,[38],> 100 µM (inactive)
same,GI50,[39],> 100 µM (inactive)
same,GI50,[40],> 100 µM (inactive)
same,GI50,[1],> 100 µM (inactive)
same,GI50,[41],> 100 µM (inactive)
same,GI50,[2],> 100 µM (inactive)
same,GI50,[3],> 100 µM (inactive)
same,GI50,[42],> 100 µM (inactive)
same,GI50,[4],> 100 µM (inactive)
same,GI50,[43],> 100 µM (inactive)
same,GI50,[5],> 100 µM (inactive)
same,GI50,[6],> 100 µM
same,GI50,[7],> 100 µM (inactive)
same,GI50,[44],> 100 µM (inactive)
same,GI50,[8],> 100 µM (inactive)
same,GI50,[10],> 100 µM (inactive)
same,GI50,[45],> 100 µM (inactive)
same,GI50,[46],> 100 µM (inactive)
same,GI50,[12],> 100 µM (inactive)
same,GI50,[13],> 100 µM (inactive)
same,GI50,[47],> 100 µM (inactive)
same,GI50,[48],> 100 µM (inactive)
same,GI50,[16],> 100 µM (inactive)
same,GI50,[17],> 100 µM (inactive)
same,GI50,[18],> 100 µM (inactive)
same,GI50,[20],> 100 µM (inactive)
same,GI50,[49],> 100 µM (inactive)
same,GI50,[50],> 100 µM (inactive)
same,GI50,[21],> 100 µM (inactive)
same,GI50,[51],> 100 µM (inactive)
same,GI50,[22],> 100 µM (inactive)
same,GI50,[23],> 100 µM (inactive)
same,GI50,[24],> 100 µM (inactive)
same,GI50,[25],> 100 µM (inactive)
same,GI50,[52],> 100 µM (inactive)
same,GI50,[27],> 100 µM (inactive)
same,GI50,[53],> 100 µM (inactive)
same,GI50,[28],> 100 µM (inactive)
same,GI50,[29],> 100 µM (inactive)
same,GI50,[54],> 100 µM (inactive)
same,GI50,[30],> 100 µM (inactive)
same,GI50,[32],> 100 µM (inactive)
same,GI50,[33],> 100 µM (inactive)
same,GI50,[34],> 100 µM (inactive)
same,GI50,[55],> 100 µM (inactive)
same,GI50,[35],> 100 µM (inactive)
same,GI50,[36],> 100 µM (inactive)
same,GI50,[56],> 100 µM (inactive)
CC1C2=C(CCCC2=O)N(c2ccc(Cl)cc2)C2=C1C(=O)CCC2,GI50,[37],> 100 µM (inactive)
same,GI50,[38],> 100 µM (inactive)
same,GI50,[39],88.5 µM (inactive)
same,GI50,[40],91.2 µM (inactive)
same,GI50,[1],73.6 µM (inactive)
same,GI50,[41],> 100 µM (inactive)
same,GI50,[2],38.5 µM (inactive)
same,GI50,[4],57.7 µM (inactive)
same,GI50,[43],> 100 µM (inactive)
same,GI50,[6],70 µM
same,GI50,[7],31.3 µM (inactive)
same,GI50,[8],42.3 µM (inactive)
same,GI50,[9],45.6 µM (inactive)
same,GI50,[57],50.1 µM (inactive)
same,GI50,[10],> 100 µM (inactive)
same,GI50,[11],29.9 µM (inactive)
same,GI50,[45],> 100 µM (inactive)
same,GI50,[46],68.5 µM (inactive)
same,GI50,[12],> 100 µM (inactive)
same,GI50,[13],57.7 µM (inactive)
same,GI50,[15],20.3 µM (inactive)
same,GI50,[16],> 100 µM (inactive)
same,GI50,[17],> 100 µM (inactive)
same,GI50,[18],60.5 µM (inactive)
same,GI50,[20],71 µM (inactive)
same,GI50,[49],69.8 µM (inactive)
same,GI50,[50],39.1 µM (inactive)
same,GI50,[21],> 100 µM (inactive)
same,GI50,[51],> 100 µM (inactive)
same,GI50,[22],60 µM (inactive)
same,GI50,[23],67 µM (inactive)
same,GI50,[24],21.6 µM (inactive)
same,GI50,[58],> 100 µM (inactive)
same,GI50,[26],> 100 µM (inactive)
same,GI50,[52],> 100 µM (inactive)
same,GI50,[53],40.6 µM (inactive)
same,GI50,[28],> 100 µM (inactive)
same,GI50,[29],83 µM (inactive)
same,GI50,[54],> 100 µM (inactive)
same,GI50,[30],16.3 µM (inactive)
same,GI50,[31],39.2 µM (inactive)
same,GI50,[32],> 100 µM (inactive)
same,GI50,[34],86.7 µM (inactive)
same,GI50,[55],54.7 µM (inactive)
same,GI50,[36],67.1 µM (inactive)
same,GI50,[56],46.2 µM (inactive)
